Assay results taken from patent publication US20210318292A1, “System and Method to Detect Small Molecules” (Sensorium Bio, Inc., priority 2020, published 2021).

Experiments:
mOR256 = assay: Luminescent assay (cAMP-responsive luciferase reporter); format: cell-based; details: FIG. 6B; luciferase reporter read 5.5 hours after stimulation
MOR203-1 = details: cited from earlier work
MOR272-1 = details: cited from earlier work
OR2W1 = target: T1, OR2W1 (Homo sapiens, UniProt Q9Y3N9); details: cited from earlier work
T1 sequence (Q9Y3N9 1-320): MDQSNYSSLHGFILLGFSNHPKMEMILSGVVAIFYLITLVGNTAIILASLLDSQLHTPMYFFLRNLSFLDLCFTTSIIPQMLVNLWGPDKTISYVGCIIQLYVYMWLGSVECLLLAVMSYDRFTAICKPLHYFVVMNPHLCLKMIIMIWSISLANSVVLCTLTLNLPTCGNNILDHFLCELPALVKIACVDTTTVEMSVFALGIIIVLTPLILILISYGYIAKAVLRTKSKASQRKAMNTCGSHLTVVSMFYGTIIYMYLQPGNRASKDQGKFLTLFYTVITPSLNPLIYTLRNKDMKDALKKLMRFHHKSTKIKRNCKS

OR1A1 [1] = target: T2, OR1A1 (Homo sapiens, UniProt Q9P1Q5); details: cited from earlier work
T2 sequence (Q9P1Q5 1-309): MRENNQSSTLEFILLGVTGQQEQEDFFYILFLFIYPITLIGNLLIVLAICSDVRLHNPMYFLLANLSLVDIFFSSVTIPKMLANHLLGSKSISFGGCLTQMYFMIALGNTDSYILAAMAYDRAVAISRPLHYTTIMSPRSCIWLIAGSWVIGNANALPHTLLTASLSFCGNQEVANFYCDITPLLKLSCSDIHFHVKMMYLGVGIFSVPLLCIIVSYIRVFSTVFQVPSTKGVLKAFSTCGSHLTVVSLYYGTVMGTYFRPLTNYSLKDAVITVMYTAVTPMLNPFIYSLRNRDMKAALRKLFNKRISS

MOR271-1 = details: cited from earlier work
[2] = tested on: exogenous ethylene benzene responsive GPCR; details: pure 5 μL hanging droplet on plate lid, no direct contact; transfected human embryonic kidney cells; within minutes
Method: Transfected human embryonic kidney cells were seeded at 60,000 cells per well in a poly-D-lysine coated 96-well plate. The exogenous ethylene benzene responsive GPCR and calcium reporter were present in the cytosol. Pure ethylene benzene was deposited as a hanging 5 μL droplet on the plate lid. Once the plate was placed over the well, there was no direct contact between the […] and the culture medium overlaid cells.

OR1A1 [3] = target: T2, OR1A1; assay: Luminescent assay (cAMP-responsive luciferase reporter); format: cell-based; details: FIG. 6A; luciferase reporter read 5.5 hours after stimulation
Method: Cells are seeded at a density of 15,000 cells per well in a solid white 96-well microplate and allowed to adhere prior to be transfected with different plasmids including but not limited to 10 ng GPCR-expressing plasmid and 10 ng cAMP-responsive luciferase reporter plasmid. The day following the transfection, the receptor-expressing cells are then stimulated with the ligands being tested. After a period to 5.5 hours following the stimulation, the cells are lysed and the luciferase reporter activity is measured following the manufacturer protocol. The amount of luciferase activity is proportional to the ligand-mediated activation level of the exogenous GPCR. FIG. 6 is the result of luminescent assay showing dose response curves of OR1A1 for propylbenzene in FIG. 6A and 1-hexanol in FIG. 6B. The cells produce light by expressing a luciferase enzyme as a reporter readout from a cAMP secondary messenger. The ligand-mediated GPCR activation leads to intracellular cAMP accumulation which triggers a luciferase activity increase which is measured.

SMILES	binding to receptor MOR203-1 (MOR203-1)	binding to receptor MOR272-1 (MOR272-1)	binding to receptor OR2W1 (OR2W1)	binding to receptor OR1A1 (OR1A1 [1])	further results
CCCCCCO [1-hexanol]					detection by mOR256, luminescent assay dose response curve (mOR256): detection
CCCCCCC(C)=O [2-octanone]	bind differentially	bind differentially	bind differentially	bind differentially	
CCCCC(=O)CC [3-heptanone]	bind differentially	bind differentially	bind differentially	bind differentially	binding to receptor MOR271-1 (MOR271-1): bind differentially
C=C.c1ccccc1 [ethylene benzene]					fluorescence of the calcium reporter after gas phase exposure [2]: measurable fluorescence increase
CCCc1ccccc1 [propylbenzene]					detection by OR1A1, luminescent assay dose response curve (OR1A1 [3]): detection
